Assay results published in patent US10517889B2, “Modulators of SMAD7 expression” (Ionis Pharmaceuticals, Inc., priority 2017, dated 2019).
Strand notation (5' to 3'): a small letter for the sugar, then the base; units joined by * are phosphorothioate-linked, units joined directly phosphodiester-linked; [ ] holds rarer units or linkages, { } end groups; capitals alone tell only the bases. e = 2'-O-(2-methoxyethyl) (MOE); [5mC] = 5-methylcytosine; d = 2'-deoxy (DNA)

The substances below were run on human SMAD7 mRNA (assay: Antisense inhibition of human SMAD7 mRNA expression in Hep3B cells by 5-10-5 MOE gapmers, single concentration, electroporation, RT-PCR (Example 1, Study 1 and 2)). Conditions: Study 2, electroporation with 15,000 nM antisense oligonucleotide, 5-10-5 MOE gapmers targeting SEQ ID NO: 1 and 2.
Type: cell-based
Summary of the method: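 Readout is percent SMAD7 mRNA inhibition versus untreated cells, measured by qRT-PCR (RTS5062) and corrected for total RNA by RIBOGREEN. Oligonucleotide, 5,000 nM or 15,000 nM, was delivered by electroporation into Hep3B cells at 20,000 per well. RNA was collected about 24 h later.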

Row | Substance | % Inhibition [%] | % inhibition of SMAD7 mRNA expression [%]
1 | 771436 (eG*eA*eG*e[5mC]*eA*dG*d[5mC]*dA*dG*d[5mC]*dT*d[5mC]*d[5mC]*dA*dG*e[5mC]*eT*eG*e[5mC]*e[5mC]; antisense) [compound 771436] | 27 | –
2 | 771692 (antisense e[5mC]*e[5mC]*e[5mC]*eA*eG*dG*dA*dG*dG*dG*dT*dA*dT*dG*d[5mC]*eA*e[5mC]*eA*e[5mC]*eT) [compound 771692] | 18 | –
3 | 771599 (antisense eG*e[5mC]*eA*eG*eG*dA*dA*dG*dG*dG*dA*dA*dT*dA*dA*eG*eA*e[5mC]*eA*eA) [compound 771599] | – | 39
4 | 771910 (antisense eA*eG*eG*e[5mC]*eA*d[5mC]*dG*dG*d[5mC]*d[5mC]*dG*d[5mC]*d[5mC]*dT*d[5mC]*e[5mC]*eT*eG*e[5mC]*eA) [compound 771910] | 4 | –
5 | 771564 (antisense eG*e[5mC]*e[5mC]*eG*e[5mC]*dA*d[5mC]*dA*d[5mC]*dT*d[5mC]*dA*d[5mC]*dA*d[5mC]*eT*e[5mC]*eA*e[5mC]*eA) [compound 771564] | – | 28
6 | 771359 (antisense eG*eT*e[5mC]*eA*e[5mC]*d[5mC]*d[5mC]*dG*dT*d[5mC]*dT*dG*dG*dG*d[5mC]*eT*e[5mC]*e[5mC]*eG*eG) [compound 771359] | 15 | –
7 | 771779 (antisense eA*e[5mC]*eA*e[5mC]*eA*d[5mC]*dT*dG*d[5mC]*dT*dG*d[5mC]*d[5mC]*dT*dT*eT*eT*e[5mC]*eT*e[5mC]) [compound 771779] | 33 | –
8 | 771700 (antisense eT*eA*eT*eG*e[5mC]*dA*d[5mC]*dA*d[5mC]*dT*d[5mC]*dT*d[5mC]*d[5mC]*d[5mC]*eA*eG*eG*eA*eG) [compound 771700] | 9 | –
9 | 771510 (antisense eA*eG*eT*eG*eT*dG*dG*d[5mC]*d[5mC]*dT*dG*d[5mC]*dT*d[5mC]*dA*eG*e[5mC]*eT*e[5mC]*eA) [compound 771510] | – | 35
10 | 771662 (antisense eA*eT*eG*eA*eG*dA*dA*dT*dG*d[5mC]*dT*dT*d[5mC]*dT*d[5mC]*eT*eT*eG*eT*eT) [compound 771662] | – | 29
11 | 771655 (antisense eA*eG*eT*e[5mC]*eT*dA*dA*dA*d[5mC]*dA*dT*dG*d[5mC]*dT*d[5mC]*eA*eT*eT*eG*eA) [compound 771655] | – | 14
12 | 771429 (eA*e[5mC]*e[5mC]*eT*eT*dT*dG*dG*d[5mC]*dA*d[5mC]*d[5mC]*dT*d[5mC]*dG*e[5mC]*eA*e[5mC]*e[5mC]*eG; antisense) [compound 771429] | 11 | –
13 | 771646 (antisense eT*eA*eT*eG*eA*dG*dT*dT*dG*dT*dA*dG*dA*dA*dG*eA*eA*eA*eT*eG) [compound 771646] | – | 0
14 | 771518 (antisense eA*eA*eG*e[5mC]*eA*d[5mC]*dT*d[5mC]*dA*dG*dG*dA*dG*dG*dA*eA*eA*eA*eT*eA) [compound 771518] | – | 4
15 | 771496 (antisense eT*eG*eA*e[5mC]*e[5mC]*dT*d[5mC]*dT*dA*dG*d[5mC]*d[5mC]*dA*dG*d[5mC]*eA*e[5mC]*eG*eG*eG) [compound 771496] | – | 20
16 | 771612 (antisense eT*e[5mC]*e[5mC]*eG*eG*dG*dA*dA*dA*dA*dA*d[5mC]*d[5mC]*dT*dG*eA*eT*eG*eT*e[5mC]) [compound 771612] | – | 3
17 | 771707 (antisense eT*eT*eG*eT*eT*d[5mC]*d[5mC]*dT*d[5mC]*dT*dG*d[5mC]*dA*d[5mC]*d[5mC]*e[5mC]*eT*eG*eG*eG) [compound 771707] | 42 | –
18 | 771852 (antisense eA*eG*eA*eT*eT*dT*dA*dA*dA*dA*dT*dT*dA*dA*dA*eA*eA*eG*e[5mC]*eA) [compound 771852] | 0 | –
19 | 771899 (antisense e[5mC]*e[5mC]*eT*eG*eA*dT*dT*dG*dT*d[5mC]*dT*d[5mC]*d[5mC]*dA*d[5mC]*eA*eT*e[5mC]*e[5mC]*e[5mC]) [compound 771899] | 47 | –
20 | 771424 (e[5mC]*e[5mC]*e[5mC]*eA*eG*dG*d[5mC]*dA*dG*d[5mC]*dA*dT*d[5mC]*d[5mC]*dA*eG*e[5mC]*e[5mC]*e[5mC]*eT; antisense) [compound 771424] | 36 | –
21 | 771919 (antisense e[5mC]*eA*eA*eT*eG*dG*d[5mC]*dA*d[5mC]*dA*dG*dG*dG*dT*dG*eA*e[5mC]*e[5mC]*eA*eG) [compound 771919] | 29 | –
22 | 771631 (antisense eG*eG*eG*eA*e[5mC]*dT*dG*d[5mC]*dT*dA*dA*dG*d[5mC]*dA*dT*eG*eT*e[5mC]*e[5mC]*e[5mC]) [compound 771631] | – | 0

Same assay, conditions: electroporation with 15,000 nM antisense oligonucleotide (Study 2), 5-10-5 MOE gapmers targeting SEQ ID NO: 1 and 2

Row | Substance | % Inhibition of SMAD7 mRNA [%] | % inhibition of SMAD7 mRNA expression [%]
23 | 771584 (antisense eA*eG*e[5mC]*e[5mC]*eG*dT*dG*d[5mC]*dT*d[5mC]*d[5mC]*dT*dG*dG*d[5mC]*eA*eG*e[5mC]*eT*eG) [compound 771584] | 26 | –
24 | 771666 (antisense eA*e[5mC]*eT*eA*e[5mC]*dA*dA*dT*dG*d[5mC]*dT*dA*dA*dA*dT*eT*eT*e[5mC]*e[5mC]*eA) [compound 771666] | – | 39
25 | 771602 (antisense eG*eG*eA*eG*eA*dT*d[5mC]*d[5mC]*dA*dG*dG*dA*dG*d[5mC]*dA*eG*eA*eT*eG*eG) [compound 771602] | – | 39
26 | 771616 (antisense eT*eG*e[5mC]*eT*eG*dA*dG*d[5mC]*dT*dG*dG*dT*dT*dT*dT*e[5mC]*eT*eA*eA*eG) [compound 771616] | 33 | 0
27 | 771649 (antisense eA*eA*eG*eT*eA*dT*d[5mC]*dA*dT*dA*d[5mC]*dG*dA*dG*dT*eG*eT*eA*eT*eG) [compound 771649] | – | 0
28 | 771560 (antisense e[5mC]*eT*eG*eA*e[5mC]*dA*dA*dG*dT*dG*dA*dA*dA*dT*dG*eA*eT*eG*eA*e[5mC]) [compound 771560] | 0 | –

Same assay, conditions: electroporation, 5,000 nM, approximately 24 hours, relative to untreated control cells, gapmers targeting SEQ ID NO: 1 and 2

Row | Substance | % inhibition of SMAD7 mRNA expression [%]
29 | 771436 (eG*eA*eG*e[5mC]*eA*dG*d[5mC]*dA*dG*d[5mC]*dT*d[5mC]*d[5mC]*dA*dG*e[5mC]*eT*eG*e[5mC]*e[5mC]; antisense) [compound 771436] | 50
30 | 771779 (antisense eA*e[5mC]*eA*e[5mC]*eA*d[5mC]*dT*dG*d[5mC]*dT*dG*d[5mC]*d[5mC]*dT*dT*eT*eT*e[5mC]*eT*e[5mC]) [compound 771779] | 53
31 | 771707 (antisense eT*eT*eG*eT*eT*d[5mC]*d[5mC]*dT*d[5mC]*dT*dG*d[5mC]*dA*d[5mC]*d[5mC]*e[5mC]*eT*eG*eG*eG) [compound 771707] | 0
32 | 771899 (antisense e[5mC]*e[5mC]*eT*eG*eA*dT*dT*dG*dT*d[5mC]*dT*d[5mC]*d[5mC]*dA*d[5mC]*eA*eT*e[5mC]*e[5mC]*e[5mC]) [compound 771899] | 57

Same assay, conditions: electroporation, 15,000 nM antisense oligonucleotide (Study 2), 5-10-5 MOE gapmers targeting SEQ ID NO: 1 and 2

Row | Substance | % inhibition of SMAD7 mRNA expression [%]
33 | 771584 (antisense eA*eG*e[5mC]*e[5mC]*eG*dT*dG*d[5mC]*dT*d[5mC]*d[5mC]*dT*dG*dG*d[5mC]*eA*eG*e[5mC]*eT*eG) [compound 771584] | 7
34 | 771404 (antisense e[5mC]*eG*eA*eA*e[5mC]*dA*dT*dG*dA*d[5mC]*d[5mC]*dT*d[5mC]*d[5mC]*dG*e[5mC]*eA*e[5mC]*eA*e[5mC]) [compound 771404] | 51
35 | 771785 (antisense eA*e[5mC]*eT*eT*eT*dG*dA*dA*dG*d[5mC]*d[5mC]*dT*dT*dT*dG*eG*eA*eA*eT*eT) [compound 771785] | 12
36 | 771841 (antisense eT*eT*eT*eA*eG*dA*dA*dA*d[5mC]*d[5mC]*d[5mC]*dA*dG*dA*dG*eA*e[5mC]*eA*eA*eA) [compound 771841] | 36
37 | 771914 (antisense eA*eT*eT*eT*eA*dG*dG*dA*dA*d[5mC]*dA*dA*dG*dG*dG*e[5mC]*eA*eA*eG*e[5mC]) [compound 771914] | 34
38 | 771560 (antisense e[5mC]*eT*eG*eA*e[5mC]*dA*dA*dG*dT*dG*dA*dA*dA*dT*dG*eA*eT*eG*eA*e[5mC]) [compound 771560] | 0
39 | 771809 (antisense eA*e[5mC]*e[5mC]*eT*eG*dA*dG*dT*d[5mC]*d[5mC]*d[5mC]*d[5mC]*d[5mC]*dA*dA*eA*eG*eT*e[5mC]*e[5mC]) [compound 771809] | 7
40 | 771554 (antisense eT*eT*eT*eG*eG*dT*dG*dG*dT*dG*d[5mC]*dT*dT*dG*dG*eA*eT*eT*eT*e[5mC]) [compound 771554] | 20
41 | 771946 (antisense eG*eG*eG*e[5mC]*eT*dA*d[5mC]*d[5mC]*dT*dT*dA*dA*d[5mC]*dA*dA*eA*eG*e[5mC]*eT*eT) [compound 771946] | 47
42 | 771483 (antisense eA*e[5mC]*eG*eG*e[5mC]*dT*dG*d[5mC]*dT*dG*d[5mC]*dA*dT*dA*dA*eA*e[5mC]*eT*e[5mC]*eG) [compound 771483] | 22
43 | 771578 (antisense e[5mC]*eT*eG*e[5mC]*e[5mC]*dT*d[5mC]*dT*dG*d[5mC]*d[5mC]*d[5mC]*d[5mC]*dA*d[5mC]*eT*eG*eA*eG*e[5mC]) [compound 771578] | 50
44 | 771865 (antisense eA*eT*eA*eG*eG*dG*dA*dT*dA*dT*d[5mC]*dT*d[5mC]*dA*dT*e[5mC]*eA*eA*eT*eA) [compound 771865] | 38

Same assay, conditions: electroporation, 15,000 nM, approximately 24 hours, relative to untreated control cells, gapmers targeting SEQ ID NO: 1 and 2

Row | Substance | % inhibition of SMAD7 mRNA expression [%]
45 | 771517 (antisense e[5mC]*eT*e[5mC]*eA*eG*dG*dA*dG*dG*dA*dA*dA*dA*dT*dA*eT*eT*eA*eG*e[5mC]) [compound 771517] | 25
46 | 771621 (antisense eA*e[5mC]*eA*e[5mC]*eA*d[5mC]*dA*dG*dG*dA*dT*dG*dG*dG*dA*eG*e[5mC]*eA*eG*eG) [compound 771621] | 36
47 | 771470 (antisense eG*e[5mC]*eA*e[5mC]*e[5mC]*dT*dT*d[5mC]*dT*dG*d[5mC]*dA*d[5mC]*d[5mC]*dA*eG*e[5mC]*eT*eG*eA) [compound 771470] | 56
48 | 771486 (antisense e[5mC]*eG*eG*eT*eA*dA*dA*dG*d[5mC]*d[5mC]*d[5mC]*dG*dT*d[5mC]*d[5mC]*eA*e[5mC]*eG*eG*e[5mC]) [compound 771486] | 52
49 | 771949 (antisense eA*eG*eA*eT*e[5mC]*dT*dT*dT*d[5mC]*dA*dA*d[5mC]*dT*dG*dG*eA*eT*eG*eG*eA) [compound 771949] | 26
